Assay results: patent US20230250172A1, “IMPLANTABLE SCAFFOLDS AND USES THEREOF FOR IMMUNOTHERAPY AND OTHER USES” (The Regents of the University of California, priority 2019, published 2023)
Entries after “also recorded” stand apart in the source; their conditions may differ.

Experiments:
[1] = biological target: TGF-beta receptor (TβR); conditions: reported IC50 value (FIG. 13B); cited from earlier work
[2] = system: formation of regulatory T cells (Treg), Foxp3 expression; experiment: in vitro inhibition of Treg formation (2D); type: cell-based, mouse
Protocol: (§1) For Treg formation experiments CD4+ T cells were purified from mouse spleen as mentioned above. Cells were then either activated on scaffolds or on anti-CD3e antibody (8 mg/ml) coated plates with the anti-CD28 antibody (2 mg/ml) supplemented medium. At the same time transforming growth factor-beta (TGF-beta; TGF-β) (15 ng/ml) was added to the media. After four days regulatory T cells were removed and stained with antibodies for flow cytometry analysis.
as §1, with “μg/mL)” for “mg/ml)”, “TGF-β” for “transforming growth factor-beta (TGF-beta; TGF-β)”, “ng/mL)” for “ng/ml)”, “removed, fixed, permeabilized,” for “removed”, “cytometric analysis of Foxp3 expression.” for “cytometry analysis.”

[3] = system: B16-F10-Ova melanoma tumors; experiment: melanoma model, cell-free scaffold implanted adjacent to tumor; type: in vivo, mouse; conditions: for T cell recruitment and tumor clearance compared to control scaffolds: chemokine in full scaffold
Excerpt: 2-5×10^5 (2-5×105) B16F10-OVA tumor cells were subcutaneously injected into right or both (in the contralateral tumor model) right and left flanks of C57BL/6J WT mice (6-8 weeks old). These melanoma-derived cells are transfected to express chicken ovalbumin peptide (OVA)34. Five days after tumor cell injection, scaffolds were surgically implanted subcutaneously into the same approximate region of the tumors in both flanks. For cell-loaded studies, ex vivo activated OT-I T cells were transferred either intravenously using retro-orbital injections (100 microliters [μL] per animal) or implantable scaffolds at the same day. Tumor size was assessed over time using a digital caliber until day 22 at which animals were sacrificed and the tumor, draining lymph nodes, and spleen were extracted. Tumor mass was measured using a digital balance before digesting the tumor tissue for flow cytometry or fixing it for tissue sectioning. Tumors were digested by incubating in collagenase and DNase I (50 micrograms/mL [μg/mL]) at 37° C. for 15 min. These enzymes were inactivated with ethylenediamine tetra-acetic acid (EDTA) (20 microliters/mL [μL/mL] of solution). […] Tissue sections were imaged by a fluorescence microscope (KEYENCE™ BZ-X800, Osaka, Japan).
Typically, mice received subcutaneous injections of B16-F10 cells to their right flank followed by the scaffold implantation adjacent to the tumor once it was palpable. Without any further treatment animal's health was monitored and were euthanized 17 days afterwards. […]
2-5×10^5 B16F10-OVA or B16F10 tumor cells were subcutaneously injected into right or both (in the contralateral tumor model) right and left flanks of wild-type C57BL/6J WT mice (6-8 weeks old, Jackson Lab). […] Tumor size was assessed over time using a digital caliper until day 22 at which animals were sacrificed and the tumor, draining lymph nodes, and spleen were extracted.
Tumor masses were measured using a digital balance before digesting the tumor tissue for flow cytometry or fixing it for tissue sectioning. […]

[4] = system: B16F10-OVA tumor cells; experiment: Transwell migration assay of tumor cells; type: cell-based, mouse; conditions: hydrogels containing CCL21; 8 h
Protocol: The migration assay to evaluate the role of chemokines on recruitment of T cells and melanoma cancer in the presence and absence of magnetic particles was performed using regular Transwell migration (Majedi, F. S. et al. Cytokine Secreting Microparticles Engineer the Fate and the Effector Functions of T-Cells. Adv. Mater. 30, 1703178 (2018)). […]
The migration assay to evaluate the role of chemokines on recruitment of T cells and melanoma cells in the presence and absence of chemokine-functionalized scaffolds was performed using regular Transwell migration as reported. […]

Cc1cccc(-c2[nH]c(C(C)(C)C)nc2-c2ccc3c(c2)OCO3)n1 [SB505124]
IC50 [1]: 129 nM

Cc1cccc(-c2nn3c(c2-c2ccnc4ccc(C(N)=O)cc24)CCC3)n1 [LY2157299, galunisertib]
Treg formation suppressed ([2]; 2D, aAPCs, soluble TGF-β in media, soluble TGFbi 10 uM or PLGA NPs with equivalent amount): about 40% | potency in suppressing Treg formation ([2]; at 1 nM concentrations, versus SB505124): about twice as potent as SB505124

CXCL12: stromal cell-derived factor 1 chemokine, used in the scaffold instead of CCL21
T cell recruitment and tumor clearance compared to control scaffolds [3]: successfully recruited T cells and helped clear tumors

B1: CCL21: chemokine (C-C motif) ligand 21, chemoattractant mixed into the scaffold (protein)
chain: SDGGGQDCCLKYSQKKIPYSIVRGYRKQEPSLGCPIPAILFSPRKHSKPELCANPEEGWVQNLMRRLDQPPAPGKQSPGCRKNRGTSKSGKKGKGSKGCKRTEQTQPSRG
recruitment of CD8+ T cells by chemokine released from scaffold ([3]; CCL21 versus SDF-1a (CXCL12), otherwise identical scaffolds): favors recruitment of CD8+ T cells more than SDF-1α; also recorded: favored recruitment of CD8+ T cells and disfavored CD4+ T cells as compared with CXCL12 | T cell recruitment and tumor clearance compared to control scaffolds [3]: successfully recruited T cells and helped clear tumors | recruitment of tumor cells (chemotaxis) [4]: no significant effect
